# Laboratory results as given in the NIST ThermoML archive (doi:10.1016/j.jct.2004.11.017).
# ± gives the expanded uncertainty stated by the source.
# How the values were obtained:
# [1] = 101 kPa, Liquid
# [2] = xn = mol fraction of the nth substance listed; conditions: 101 kPa, Liquid, x2 = 0
SMILES,mass density ([1]; 298.15 K),mass density ([1]; 303.15 K),mass density ([1]; 308.15 K),mass density ([1]; 313.15 K),mass density ([1]; 318.15 K),mass density ([1]; 323.15 K),mass density ([1]; 328.15 K),mass density ([1]; 333.15 K),mass density ([1]; 338.15 K),mass density ([1]; 343.15 K),mass density ([2]; 298.15 K),mass density ([2]; 303.15 K),mass density ([2]; 308.15 K),mass density ([2]; 313.15 K),mass density ([2]; 318.15 K),mass density ([2]; 323.15 K),mass density ([2]; 328.15 K),mass density ([2]; 333.15 K),mass density ([2]; 338.15 K),mass density ([2]; 343.15 K)
CC[S+]([O-])CC [diethyl sulfoxide],1010.2 ± 1.4 kg/m3,1005.8 ± 1.4 kg/m3,1001.4 ± 1.3 kg/m3,997 ± 1.3 kg/m3,992.6 ± 1.4 kg/m3,988.2 ± 1.5 kg/m3,983.9 ± 1.5 kg/m3,979.5 ± 1.6 kg/m3,975.1 ± 1.7 kg/m3,970.6 ± 1.8 kg/m3,–,–,–,–,–,–,–,–,–,–
O [water] + CC[S+]([O-])CC,–,–,–,–,–,–,–,–,–,–,996.6 ± 1.3 kg/m3,995.2 ± 1.4 kg/m3,993.6 ± 1.4 kg/m3,991.9 ± 1.4 kg/m3,989.7 ± 1.4 kg/m3,987.6 ± 1.5 kg/m3,985.3 ± 1.5 kg/m3,982.8 ± 1.6 kg/m3,979.3 ± 1.6 kg/m3,977.5 ± 1.6 kg/m3
